What is called IC50 is the concentration that inhibits the measured activity by half. Read a low IC50 as higher potency.

The target in this assay is T1, PLA2 (phospholipase A2) from rat platelets (Rattus norvegicus, UniProt P14423).
T1 construct: from tissue; host or cells: rat platelets
T1 sequence (P14423 22-146): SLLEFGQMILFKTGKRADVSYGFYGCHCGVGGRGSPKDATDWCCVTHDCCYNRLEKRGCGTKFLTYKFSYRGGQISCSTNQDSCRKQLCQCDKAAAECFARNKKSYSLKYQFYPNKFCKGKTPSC
Nature of the assay: Phospholipase A2 inhibitory activity (release of free fatty acid from 14C-labelled phosphatidylethanolamine). It counts as biochemical. The conditions noted are these: rat platelet PLA2; Tris-buffer 0.1M, pH 7.4; CaCl2 3 mM; 37° C., 20 minutes. The method, then: The compounds of the present invention were tested for their Phospholipase A2 inhibitory activity by the following procedure.
1-Palmitoyl-2-[1-^14 C]-linoleoyl L-3-Phosphatidylethanolamine (Amersham, Inc., 59 mCi/mmol) were diluted with L-α-phosphatidylethanolamine (Sigma, Co., from […]) [2,000 dpm/nmol], and the dilution was sonicated. The resultant dilution was used as a substrate. The PLA2 (phospholipase A2) which was used in the test was from rat platelets. The PLA2 and the substrate preparation were added to a solution of CaCl2 (3 mM)in Tris-buffer (0.1M, pH 7.4), and the mixture was allowed to react at 37° C. for 20 minutes. Then, the reaction was terminated by adding 1.25 ml of Dole's reagent to the reaction mixture and stirring immediately the resultant mixture. To the mixture was added 0.5 ml of distilled water and 0.8 ml of n-heptane, and the mixture was stirred, centrifuged, and the resulting supernatant was taken into another tube. To this supernatant were added additional 0.8 ml of n-heptane and silica gel, and the mixture was stirred, centrifuged, and then the supernatant was taken into vials. Toluene cocktails were added to the vials. The amount of free fatty acid released from PLA2 (DPM value) was determined using liquid scintillation counter.
Inhibitory activity (%) was estimated by the formula: [(DPM value at the addition of the inhibitor-DPM value without PLA2)/(DPM value with only PLA2 -DPM value without PLA2)]×100.
In turn, `COCc1c(C)c(C(=O)Oc2c(C)c(C)c(C(=O)O)c(OC)c2C)c(OC)c(C)c1O` [Compound 1i] came in with an IC50 of 3.9 µM.

As to `CCCCOCc1c(C)c(C(=O)Oc2c(C)c(C)c(C(=O)Oc3c(C)c(C)c(C(=O)O)c(OC)c3C)c(OC)c2C)c(O)c(C)c1O` [Compound 1d], the IC50 was determined as 0.12 µM.

Turning to `COCc1c(C)c(C(=O)Oc2c(C)c(C)c(C(=O)Oc3c(C)c(C)c(C(=O)O)c(OC)c3C)c(OC)c2C)c(O)c(C)c1O` [Compound 1g], the IC50 turned out to be 0.34 µM.

The molecule `COc1c(C)c(OC(=O)c2c(C)c(C)c(OC(=O)c3c(C)c(CNCC(=O)OCc4ccccc4)c(O)c(C)c3O)c(C)c2OC)c(C)c(C)c1C(=O)O` [Compound 1a, 4-[4'-(4"-Carboxy-3"-methoxy-2",5",6"-trimethylphenoxycarbony)-3'-methoxy-2',5',6'-trimethylphenoxycarbonyl]-2,5-dimethyl-6-benzyloxyglycylmethylresorcinol] showed an IC50 of 0.026 µM.

`COc1c(C)c(OC(=O)c2c(C)c(C)c(OC(=O)c3c(C)c(CO)c(O)c(C)c3O)c(C)c2OC)c(C)c(C)c1C(=O)O` [Compound 1f]: the IC50 is 0.38 µM.

As for `COc1ccc(CCOCc2c(C)c(C(=O)Oc3c(C)c(C)c(C(=O)Oc4c(C)c(C)c(C(=O)O)c(OC)c4C)c(OC)c3C)c(O)c(C)c2O)cc1` [Compound 1c], the IC50 turned out to be 0.16 µM.

In the case of `COc1c(C)c(OC(=O)c2c(C)c(C)c(OC(=O)c3c(C)c(CNCCCCC(NC(=O)OCc4ccccc4)C(N)=O)c(O)c(C)c3O)c(C)c2OC)c(C)c(C)c1C(=O)O` (stereo not drawn) [Compound 1e], the IC50 is 1.1 µM.

`COc1c(C)c(OC(=O)c2c(C)c(C)c(OC(=O)c3c(C)c(CN[C@H](C)c4ccccc4)c(O)c(C)c3O)c(C)c2OC)c(C)c(C)c1C(=O)O` [Compound 6b, 4-[4'-[5"-(Sec-phenethylaminomethyl)-2",4"-dihydroxy-3",6"-dimethylphenylcarboxy]-2'-methoxy-3',5',6'-trimethyl]phenylcarboxy-2-methoxy-3,5,6-trimethyl benzoic acid] came in with a 50% inhibitory concentration (IC50) of 0.3 µM.

As for `CCOC(=O)CNCc1c(C)c(C(=O)Oc2c(C)c(C)c(C(=O)Oc3c(C)c(C)c(C(=O)O)c(OC)c3C)c(OC)c2C)c(O)c(C)c1O` [Compound 1b], half-maximal inhibition (IC50) was put at 0.17 µM.

Source of the values: US5473096A, “Substituted benzoate derivatives” (Shionogi & Co., Ltd., priority 1992, dated 1995).
